The subject of this assay is CEM cells HIV-1 protection, formazan growth assay. Put plainly: NCI AIDS Antiviral Assay. Conditions: for pIC50: measured here: growth of uninfected CEM cells. In outline: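 CEM (human) cells, HIV-1 infected vs uninfected, 5-point dosing, formazan growth read-out. Retest threshold 50% protection.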

pEC50, pIC50: −log10 of the molar value. Active and inactive are the calls of the source.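 The calls were made as follows: active = compounds giving half or more protection of infected cells from virus-caused growth loss, again on retest; inactive = the rest.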 Where a SMILES comes first, the peptide text is derived from it. The star is where a group is joined. Boc = CC(C)(C)OC(=O)*

In PubChem BioAssay AID179 (DTP/NCI, 2004) one finds EC50, IC50 and outcome data, which are given here for 51 compounds.

One may read the pEC50 as the EC50 on a negative log10 scale, so that one unit is a factor of ten. A word on the pIC50: it is the negative decadic logarithm of the IC50, by convention in mol/L. Lower therefore signals a large IC50.

With `C=C1C(=O)OC2C[C@H](C)C3CC(=O)C(C)=C3CC12` (stereo not given in full), the pEC50 is less than 3.42 and the pIC50 was 5.18.

As to `CN(CC(=O)O)S(=O)(=O)c1ccc(Cl)cc1`, the outcome was inactive.

As to `CC(NC(=O)OC(C)(C)C)C(=O)NC(Cc1ccccc1)C(=O)NCC(=O)O` (stereo not drawn) (Boc-Ala-Phe-Gly-OH; configuration not given here), the pEC50 is less than 3.70 and the pIC50 was less than 3.70.

For `Cc1ccc2c(c1)C(=O)CC=C(C(=O)O)N2`, the pEC50 was less than 3.70 and the pIC50 was less than 3.70.

Regarding `CC1=CC(=O)/C(=C/N2C(=O)/C(=C\c3cccc(O)c3)SC2=S)C(=O)O1`, the pEC50 was less than 3.70 and the negative-log IC50 (pIC50) is 4.26.

Take `CC(C)(C)OC(=O)c1ccc(NCC2=C(Br)C(=O)C=CC2=O)cc1`: the pEC50 was less than 3.70 and the negative logarithm of the IC50 (pIC50) was 4.94.

With `CC(=O)Nc1ccc(C2=N/C(=C\c3ccc(Cl)c(Cl)c3)C(=O)O2)cc1`, the pEC50 is less than 5.14 and the pIC50 is less than 5.14.

Consider `COC(=O)C1CCc2c1c(=O)n1c([nH]c3ccccc31)c2C#N` (stereo not given), for which the pEC50 is less than 4.39 and the negative logarithm of the IC50 (pIC50) was less than 4.39.

For `CCOC1NC(=O)Oc2ccccc21` (stereo not given), the outcome was inactive.

For `N#C/C(N)=C(\C#N)N=CNc1ccccc1N`, the pEC50 is less than 3.70 and the pIC50 was less than 3.70.

`C[n+]1c2ccccc2c(CNc2ccc(S(=O)(=O)N=C(N)N)cc2)c2ccccc21`: the outcome was inactive.

With `O=C1SC(c2ccccc2)(c2ccccc2)c2cscc21`, the pEC50 was less than 4.21 and the negative-log IC50 (pIC50) was less than 4.21.

Take `O=C1CC(O)(c2ccccc2)C(c2ccccc2)=C1c1ccccc1` (stereo not given): the outcome was inactive.

On to `CC(=O)OCC1OC(N=[N+]=[N-])C(OC(C)=O)C(OC(C)=O)C1OC1OC(COC(C)=O)C(OC(C)=O)C(OC(C)=O)C1OC(C)=O` (stereo not given), for which the pEC50 is less than 4.27 and the pIC50 was less than 4.27.

For the compound `CC(=O)OCC1OC(c2c(OC(C)=O)cc(C)c3c(=O)cc(/C(C(C)=O)=C(\C)O)oc23)C(OC(C)=O)C(OC(C)=O)C1OC(C)=O` (stereo not given), the pEC50 is less than 3.70 and the pIC50 was less than 3.70.

Turning to `O=C(CC(C(=O)c1cccs1)c1ccsc1)c1ccco1` (stereo not given), the pEC50 was less than 3.70 and the pIC50 was 4.49.

On to `CCOP(=O)(CCCC(O)CNc1cc(Cl)nc(N)n1)OCC` (stereo not given), for which the pEC50 is less than 3.70 and the negative logarithm of the IC50 (pIC50) is less than 3.70.

`CC12CCC(C)(c3cc(O)c(O)cc31)c1cc(O)c(O)cc12`: the result was inactive.

As to `CC1(C)OCC2OC(n3cnc4c(N)nc(Cl)nc43)C(OS(C)(=O)=O)C2O1` (stereo not given), the pEC50 was less than 4.95 and the pIC50 was 5.12.

Take `N#Cc1c2ccc([N+](=O)[O-])cc2c(=O)n2c1[nH]c1ccc(C(F)(F)F)cc12`: the pEC50 is less than 3.70 and the negative logarithm of the IC50 (pIC50) was 5.72.

Consider `Cc1c2ncccc2cc2oc3ccccc3c(=O)c12`, for which the pEC50 was less than 3.70 and the negative-log IC50 (pIC50) was 5.00.

Regarding `CC1(CCCO)CCCCCCCCCC(C)(CCCO)C1=O` (stereo not given), the pEC50 was less than 3.70 and the pIC50 is 3.94.

`O=C1CNc2cc(N3CCN(c4cccc(C(F)(F)F)c4)CC3)ccc2N1`: the pEC50 is less than 3.70 and the pIC50 is 4.12.

Consider `N#C/C(=C(/Cc1ccc(F)cc1)NP(=O)(c1ccccc1)c1ccccc1)c1ccc(F)cc1`, for which the pEC50 was less than 4.67 and the pIC50 is less than 4.67.

For the compound `OC1C(O)C2(C[C@H]1Br)OC(COCc1ccccc1)[C@@H](COCc1ccccc1)O2` (stereo not given in full), the result was inactive.

For the compound `CC(=O)NC1C(OCc2ccccc2)OC(COC(=O)CCCCCCCCCCNC(=O)c2cccc3c(=O)c4ccccc4[nH]c23)C(O)C1OC(C)C(=O)NC(C)C(=O)NC(CCC(N)=O)C(N)=O` (stereo not given), the pEC50 is less than 5.13 and the negative-log IC50 (pIC50) was less than 5.13.

On to `O=C1CN(CCCO)CC(=O)N2Cc3ccccc3CN12`, for which the pEC50 was less than 3.70 and the pIC50 is less than 3.70.

As to `CN1C2CC(=O)CC1[C@@H]1OC(c3ccccc3)O[C@H]21` (stereo not given in full), the pEC50 is less than 3.70 and the negative logarithm of the IC50 (pIC50) was less than 3.70.

As for `NC(=O)NC1C(C(N)=O)N(Cc2ccccc2)C(=O)N1Cc1ccccc1` (stereo not given), the pEC50 was less than 4.01 and the pIC50 is less than 4.01.

Consider `CCOc1cc(/C=C/c2c(C#N)c(=O)oc3ccc(C)cc23)ccc1O`, for which the pEC50 is less than 4.60 and the pIC50 was 5.35.

For `CN1C/C(=C\c2cccs2)C(O)/C(=C/c2cccs2)C1` (stereo not given), the pEC50 is less than 3.70 and the negative logarithm of the IC50 (pIC50) is 3.94.

As to `Cc1cc(OCC(O)CO)ccc1Cl` (stereo not given), the pEC50 is less than 2.94 and the negative logarithm of the IC50 (pIC50) was 3.26.

In the case of `C/C(=C\C(=O)OCCCCCCCC(=O)Nc1c2sscc-2[nH]c1=O)C(O)[C@@H]1OCC(C/C=C/[C@@H](C)[C@H](C)O)[C@@H](O)[C@H]1O` (stereo not given in full), the pEC50 was less than 3.70 and the pIC50 is 5.50.

For `CCOC(=O)c1ccc(CS(=O)c2ccc(C)cc2)c([N+](=O)[O-])c1` (stereo not given), the pEC50 is less than 4.13 and the negative logarithm of the IC50 (pIC50) was 4.84.

In the case of `CC(=O)Nc1ccc(S(=O)(=O)c2ccc(NC(=O)c3ccccc3SC(=O)CCCC[n+]3ccccc3)cc2)cc1`, the pEC50 was 4.87 and the negative-log IC50 (pIC50) is less than 3.70.

For `Cc1cc(=O)c2c([nH]1)NS(=O)(=O)NC2=O`, the pEC50 was less than 2.83 and the pIC50 is less than 2.83.

With `Cc1cc(N(CCCl)CCCl)ccc1N=Nc1ccccc1`, the pEC50 was less than 3.70 and the negative logarithm of the IC50 (pIC50) was 4.71.

For `CC1(C)S(=O)(=O)OCCOS1(=O)=O`, the pEC50 is less than 3.70 and the pIC50 was 3.96.

As to `COc1ccc2nc(NC(=O)C(=O)NNC(=O)c3ccncc3)sc2c1`, the pEC50 was less than 3.76 and the negative-log IC50 (pIC50) was 4.79.

Regarding `COc1c(Br)cc(C(=O)c2cc(Br)c(OC)c(C(=O)O)c2)cc1C(=O)O`, the pEC50 is less than 2.83 and the pIC50 is less than 2.83.

In the case of `COc1cc(Nc2nc3ccccc3nc2-c2cccs2)cc(OC)c1OC`, the pEC50 was less than 4.60 and the negative logarithm of the IC50 (pIC50) is 4.66.

Take `COC1(OC)C=CC2C1C1C=CC2C1(OC)OC` (stereo not given): the pEC50 is less than 3.70 and the negative logarithm of the IC50 (pIC50) was less than 3.70.

In the case of `Nc1ccc(/C=C/c2cccc3cccnc23)cc1`, the pEC50 is 7.20 and the negative-log IC50 (pIC50) was less than 3.70.

`Cc1c(Cl)c(=O)oc2cc(O)ccc12`: the pEC50 was less than 3.49 and the pIC50 was 3.76.

Take `O=c1oc2cc(O)ccc2c(O)c1C(c1ccc(C(c2c(O)c3ccc(O)cc3oc2=O)c2c(O)c3ccc(O)cc3oc2=O)cc1)c1c(O)c2ccc(O)cc2oc1=O`: the pEC50 was less than 3.70 and the pIC50 is 4.04.

For the compound `CCN1/C(=C/C#C/C(C)=C\c2sc3ccc(Cl)cc3[n+]2CC)Sc2ccc(Cl)cc21`, the pEC50 was less than 4.70 and the pIC50 was 5.65.

For the compound `Oc1c(Br)ccc2cccnc12`, the pEC50 was less than 4.70 and the pIC50 was 6.10.

On to `O=C(O)CCC12CC[C@]3(O)OC(=O)[C@H](C[C@@H]1C(=O)O)C23` (stereo not given in full), for which the outcome was inactive.

Regarding `Nc1nc(Cl)cc(NCC2(CO)CCC(OCc3ccccc3)C2)n1` (stereo not given), the pEC50 was 4.84 and the pIC50 was 4.75.

`Cc1cccc(C(C)C)c1NC(=O)C(=O)CC(=O)c1sc(Nc2ccccc2Cl)nc1C`: the pEC50 is less than 3.70 and the negative-log IC50 (pIC50) was less than 3.70.

For the compound `CC[C@]1(O)CC[C@H]2[C@@H]3CCC4=CC(=O)CC[C@@H]4[C@H]3CC[C@@]21CC`, the pEC50 is less than 3.70 and the negative logarithm of the IC50 (pIC50) was 4.31.
